The text below walks through data of ChEMBL document CHEMBL1201862, “PubChem BioAssay data set” (2004).

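A five-concentration, 48-hour dose response in 96-well plates underlies each endpoint, interpolated linearly between surrounding concentrations. GI50 = concentration required for 50% inhibition of growth.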 Calls of active or inactive are those of the source. Rule as the data show it: active = GI50 up to about 1.1 µM and inactive = higher. Some results are limits rather than exact numbers.

Common to all, as to experiment: NCI-60 cell line screen, 48 h
Assay [1] concerns COLO 205.
In assay [2] the test system is SK-MEL-5.
Assay [3] concerns HOP-62.
The subject of assay [4] is MDA-N.
Assay [5] has as its system KM12.
The subject of assay [6] is SK-OV-3.
For assay [7], the system named is SF-539.
Assay [8] relates to NCI-H460.
The test system of assay [9] is OVCAR-4.
For assay [10], the system named is HCC 2998.
The test system of assay [11] is RXF 393.
In assay [12] the test system is SK-MEL-28.
In assay [13] the test system is DU-145.
Assay [14] relates to MDA-MB-231.
The subject of assay [15] is ACHN.
For assay [16], the system named is SR.
Assay [17] concerns UO-31.
Assay [18] relates to HOP-92.
Assay [19] deals with TK-10.
For assay [20], the system named is Malme-3M.

As for `c1ccc(/C(=N/Nc2ccncn2)c2ccccn2)cc1`, the GI50 in assay [1] was 1.03 µM (active); in assay [2], 15.4 µM (inactive); in assay [3], 31.7 µM (inactive); in [4] it was 58.5 µM (inactive); in [5], 22 µM (inactive); in assay [6], 23.7 µM (inactive). For the same molecule, the GI50 was 32.2 µM (inactive) in [7]; 30.1 µM (inactive) in [8]; 49.1 µM (inactive) in assay [9]; > 100 µM (inactive) in assay [10]; 34.3 µM (inactive) in assay [11]; 70.3 µM (inactive) in assay [12]. Besides, the GI50 was 34.6 µM (inactive) in assay [13]; 32.2 µM (inactive) in assay [14]; 5.82 µM (inactive) in [15]; 10.5 µM (inactive) in assay [16]; 15.5 µM (inactive) in assay [17].

As for `CCCCCCCCCCCCc1ccsc1-c1ccc(-c2ccc(-c3sccc3CCCCCCCCCCCC)s2)s1`, the GI50 in assay [1], in [18], in [2], in assay [3], in assay [4] and in assay [5] was > 100 µM (inactive) in each case. In addition, the GI50 in assay [6], in assay [7], in assay [19], in assay [8], in [10] and in [11] was > 100 µM (inactive) throughout. For the same molecule, the GI50 in assay [12], in assay [13], in assay [14], in assay [15], in assay [16] and in assay [17] was > 100 µM (inactive) in each case.

With `Cc1ccc2c(c1)NC(=O)CCSSCCC(=O)N2`, the GI50 in [1], in assay [20], in [18], in assay [2], in assay [3] and in assay [4] was > 100 µM (inactive) each time. In addition, the GI50 in assay [5], in assay [6], in [7], in [19], in assay [8] and in assay [9] was > 100 µM (inactive) each time. The GI50 in [11], in assay [12], in [13], in assay [14], in assay [15] and in assay [16] was > 100 µM (inactive) throughout. The GI50 in assay [17] is > 100 µM (inactive).

With `O=C1/C(=C\c2ccccc2)C(NC2CCCCC2)c2ccccc21` (stereo unspecified), the GI50 was 1.55 µM (inactive) in assay [1]; 1.46 µM (inactive) in assay [20]; 1.96 µM (inactive) in [18]; 2.37 µM (inactive) in assay [2]; 2.46 µM (inactive) in [3]; 1.43 µM (inactive) in assay [4]. For the same molecule, the GI50 in [5] is 4.44 µM (inactive); in [6], 14 µM (inactive); in [7] it was 1 µM (active); in assay [19] it was 1.29 µM (inactive); in assay [8] it was 2.71 µM (inactive); in assay [9], 1.79 µM (inactive). Further, the GI50 is 1.56 µM (inactive) in assay [11]; 2.54 µM (inactive) in assay [12]; 1.53 µM (inactive) in [13]; 2.23 µM (inactive) in assay [14]; 0.923 µM (active) in assay [15]; 0.206 µM (active) in [16]. The GI50 in assay [17] was 1.1 µM (active).

As to `CNC(=O)C(C)C1C(=O)/C(=C(O)/C=C\C(C)=C\C(C)C2OC3(C)OC(C=CC34CO4)C2C)C(=O)N1C1CCC(O)C(C)O1` (stereo unspecified), the GI50 in assay [1], in assay [20], in [2], in assay [3], in assay [4] and in assay [5] was > 100 µM (inactive) throughout. Further, the GI50 in assay [6], in [7], in [19], in [8], in assay [10] and in assay [11] was > 100 µM (inactive) in each case. For the same molecule, the GI50 in assay [12], in assay [13], in assay [14], in [15], in assay [16] and in assay [17] was > 100 µM (inactive) throughout.

For `COc1ccc(S(=O)(=O)Nc2ccc(-c3csc(N4C(=O)/C(=C/c5ccccc5)N=C4c4ccccc4)n3)cc2)cc1Cl`, the GI50 in assay [1] was 34.5 µM (inactive); in assay [20], 38.3 µM (inactive); in [18] it was 24.4 µM (inactive); in [2] it was 28.4 µM (inactive); in [3], 36.4 µM (inactive); in assay [4] it was 38.7 µM (inactive). The GI50 is 33.7 µM (inactive) in assay [5]; 79.3 µM (inactive) in [6]; 41.6 µM (inactive) in [7]; 47.4 µM (inactive) in [19]; 31.3 µM (inactive) in assay [8]; 27.2 µM (inactive) in assay [9]. Moreover, the GI50 is 24.4 µM (inactive) in assay [11]; 57.4 µM (inactive) in [12]; 27.8 µM (inactive) in assay [13]; 16.1 µM (inactive) in assay [14]; 34.8 µM (inactive) in assay [15]; 28.1 µM (inactive) in [16]. In addition, the GI50 in [17] was 5.62 µM (inactive).

As for `CCOC(=O)C1=c2[nH]c3cccc4cccc(c43)n2C(=O)CC1c1ccccc1` (stereo unspecified), the GI50 in assay [1], in assay [20], in [18], in assay [2], in assay [3] and in [4] was > 100 µM (inactive) throughout. The GI50 in [5], in assay [6], in assay [19], in [8], in [9] and in assay [10] was > 100 µM (inactive) each time. The GI50 in assay [11], in assay [12], in [13], in assay [14], in assay [15] and in assay [16] was > 100 µM (inactive) each time. Further, the GI50 in assay [17] is > 100 µM (inactive).

On to `COc1c(C)c(C/C=C(\C)CC/C=C(\C)CC/C=C(\C)CC/C=C(\C)CCC=C(C)C)c(OC)c(OC)c1OC`, for which the GI50 is > 100 µM (inactive) in assay [1]; 15.6 µM (inactive) in [18]; 16.7 µM (inactive) in [2]; 15.6 µM (inactive) in [3]; 31.4 µM (inactive) in [4]; 14.7 µM (inactive) in [5]. Besides, the GI50 in assay [6] was > 100 µM (inactive); in assay [7], > 100 µM (inactive); in assay [19], 24 µM (inactive); in assay [8], 8.81 µM (inactive); in assay [9] it was 19.9 µM (inactive); in assay [11], 17.4 µM (inactive). Besides, the GI50 is > 100 µM (inactive) in assay [13]; 28.3 µM (inactive) in [14]; 16.4 µM (inactive) in assay [15]; 22.9 µM (inactive) in [16]; 21.6 µM (inactive) in assay [17].

As to `COc1c(O)cc2c(c1O)C(=O)C(Cc1ccc(O)cc1)CO2` (stereo unspecified), the GI50 was > 100 µM (inactive) in assay [1]; > 100 µM (inactive) in [20]; 68.2 µM (inactive) in assay [18]; 84.9 µM (inactive) in [2]; 94.6 µM (inactive) in [3]; 32.1 µM (inactive) in [4]. Besides, the GI50 in assay [5] is 89.3 µM (inactive); in assay [6], 68.9 µM (inactive); in [7], 56.4 µM (inactive); in assay [19], > 100 µM (inactive); in assay [8], 44.6 µM (inactive); in [9] it was 40.3 µM (inactive). The GI50 in [11] was > 100 µM (inactive); in [12], 59.7 µM (inactive); in [13], > 100 µM (inactive); in assay [14], > 100 µM (inactive); in assay [15], > 100 µM (inactive); in [16] it was 24.9 µM (inactive). For the same molecule, the GI50 in [17] is > 100 µM (inactive).

As for `CNC(=O)c1nn[nH]c1O`, the GI50 in assay [1], in assay [20], in assay [18], in assay [2], in assay [3] and in assay [4] was > 100 µM (inactive) each time. Also, the GI50 in assay [5] is > 100 µM (inactive); in assay [6] it was > 100 µM (inactive); in [8], > 10 µM (inactive); in assay [10], > 100 µM (inactive); in assay [11] it was > 100 µM (inactive); in [12], > 100 µM (inactive). Besides, the GI50 in [13], in [14], in [15], in [16] and in assay [17] was > 100 µM (inactive) each time.

Take `CCc1nc(N)nc(N)c1-c1ccc(N2CCOCC2)c(N=[N+]=[N-])c1`: the GI50 in assay [1] is 79.6 µM (inactive); in assay [18], 78.3 µM (inactive); in assay [2] it was 37.2 µM (inactive); in assay [3], > 100 µM (inactive); in assay [4] it was 57.1 µM (inactive); in [5] it was 70.5 µM (inactive). In addition, the GI50 is > 100 µM (inactive) in [6]; 75.5 µM (inactive) in assay [7]; > 100 µM (inactive) in assay [19]; 8.85 µM (inactive) in assay [8]; 70.6 µM (inactive) in assay [9]; 47.9 µM (inactive) in assay [10]. The GI50 in assay [11] was > 83.2 µM (inactive); in assay [12] it was > 100 µM (inactive); in assay [13], > 82.8 µM (inactive); in assay [14], > 100 µM (inactive); in [15], 46 µM (inactive); in assay [16] it was 36.9 µM (inactive). The GI50 in assay [17] was > 100 µM (inactive).
